PubChem BioAssay AID1963843 (Molecular Pharmacology Branch, DTP, NCI, 2024)

Test system: 616215-338-R-J1-PDC complex spheroid viability
Test: Anticancer human tumor 616215-338-R-J1-PDC patient-derived colon adenocarcinoma cell line growth inhibition [POLQ]
Conditions: for IC50: curve of first compound; for viability, T/C: stronger effect = lower value
Summary of the method: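 Patient-derived tumour cells were co-cultured with HUVEC and mesenchymal stem cells as multicellular spheroids at 37 °C. They were treated with POLQ inhibitors (novobiocin, ART-558, RP6685) alone or combined with other agents. Top concentrations were at or near clinical Cmax (otherwise 10 microM; SN-38 at 1 microM), decreasing in half-log steps.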

[1] = second compound 0.0316 µM, first compound 0.0316 µM
[2] = second compound 0.0316 µM, first compound 0.1 µM
[3] = second compound 0.0316 µM, first compound 0.316 µM
[4] = second compound 0.0316 µM, first compound 1 µM
[5] = second compound 0.1 µM, first compound 0.0316 µM
[6] = second compound 0.1 µM, first compound 0.1 µM
[7] = second compound 0.1 µM, first compound 0.316 µM
[8] = second compound 0.1 µM, first compound 1 µM
[9] = second compound 0.316 µM, first compound 0.0316 µM
[10] = second compound 0.316 µM, first compound 0.1 µM
[11] = second compound 0.316 µM, first compound 0.316 µM
[12] = second compound 0.316 µM, first compound 1 µM
[13] = second compound 1 µM, first compound 0.0316 µM
[14] = second compound 1 µM, first compound 0.1 µM
[15] = second compound 1 µM, first compound 0.316 µM
[16] = second compound 1 µM, first compound 1 µM
[17] = second compound 3.16 µM, first compound 0.0316 µM
[18] = second compound 3.16 µM, first compound 0.1 µM
[19] = second compound 3.16 µM, first compound 0.316 µM
[20] = second compound 3.16 µM, first compound 1 µM
[21] = second compound 10 µM, first compound 0.0316 µM
[22] = second compound 10 µM, first compound 0.1 µM
[23] = second compound 10 µM, first compound 0.316 µM
[24] = second compound 10 µM, first compound 1 µM
[25] = second compound 0.0316 µM, first compound 3.16 µM
[26] = second compound 0.0316 µM, first compound 10 µM
[27] = second compound 0.1 µM, first compound 3.16 µM
[28] = second compound 0.1 µM, first compound 10 µM
[29] = second compound 0.316 µM, first compound 3.16 µM
[30] = second compound 0.316 µM, first compound 10 µM
[31] = second compound 1 µM, first compound 3.16 µM
[32] = second compound 1 µM, first compound 10 µM
[33] = second compound 3.16 µM, first compound 3.16 µM
[34] = second compound 3.16 µM, first compound 10 µM
[35] = second compound 10 µM, first compound 3.16 µM
[36] = second compound 10 µM, first compound 10 µM
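Further: spheroids exposed to compounds for one week before readout.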
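Wherever viability, T/C is given: percent viability relative to DMSO vehicle wells taken as 100%.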

`C=CCn1c(=O)c2cnc(Nc3ccc(N4CCN(C)CC4)cc3)nc2n1-c1cccc(C(C)(C)O)n1` + COC1C(OC(N)=O)C(O)C(Oc2ccc3c(O)c(NC(=O)c4ccc(O)c(CC=C(C)C)c4)c(=O)oc3c2C)OC1(C)C was tested, and the IC50 (second compound 0.0316 µM) was greater than 1000 nM, the IC50 (second compound 0.1 µM) was greater than 1000 nM and the IC50 (second compound 0.316 µM) was greater than 1000 nM. It also gave an IC50 (second compound 1 µM) greater than 1000 nM, an IC50 (second compound 3.16 µM) greater than 1000 nM and an IC50 (second compound 10 µM) greater than 1000 nM. The viability, T/C (second compound 0.0316 µM, first compound 0.00316 µM) was 102%, the viability, T/C (second compound 0.0316 µM, first compound 0.01 µM) was 97.8% and the viability, T/C [1] was 97.2%. For the same compound, the viability, T/C [2] was 113%, the viability, T/C [3] was 97.8% and the viability, T/C [4] was 91.8%. It also gave a viability, T/C (second compound 0.1 µM, first compound 0.00316 µM) of 105%, a viability, T/C (second compound 0.1 µM, first compound 0.01 µM) of 101% and a viability, T/C [5] of 89.2%. The viability, T/C [6] was 103%, the viability, T/C [7] was 95.3% and the viability, T/C [8] was 55.8%. The viability, T/C (second compound 0.316 µM, first compound 0.00316 µM) was 94.3%, the viability, T/C (second compound 0.316 µM, first compound 0.01 µM) was 106% and the viability, T/C [9] was 101%. The viability, T/C [10] was 97.8%, the viability, T/C [11] was 95.2% and the viability, T/C [12] was 59.4%. It also gave a viability, T/C (second compound 1 µM, first compound 0.00316 µM) of 105%, a viability, T/C (second compound 1 µM, first compound 0.01 µM) of 94.5% and a viability, T/C [13] of 101%. It also gave a viability, T/C [14] of 103%, a viability, T/C [15] of 90.7% and a viability, T/C [16] of 61.5%. It also gave a viability, T/C (second compound 3.16 µM, first compound 0.00316 µM) of 93.8%, a viability, T/C (second compound 3.16 µM, first compound 0.01 µM) of 104% and a viability, T/C [17] of 100%. For the same compound, the viability, T/C [18] was 98.2%, the viability, T/C [19] was 93.9% and the viability, T/C [20] was 61.4%. The viability, T/C (second compound 10 µM, first compound 0.00316 µM) was 105%, the viability, T/C (second compound 10 µM, first compound 0.01 µM) was 100% and the viability, T/C [21] was 98.3%. The viability, T/C [22] was 103%, the viability, T/C [23] was 87.7% and the viability, T/C [24] was 67.3%.
`CC(C)n1c(=O)n(C)c2cnc3cc(F)c(-c4ccc(OCCCN5CCCCC5)nc4)cc3c21` + COC1C(OC(N)=O)C(O)C(Oc2ccc3c(O)c(NC(=O)c4ccc(O)c(CC=C(C)C)c4)c(=O)oc3c2C)OC1(C)C gave an IC50 (second compound 0.0316 µM) greater than 10000 nM, an IC50 (second compound 0.1 µM) greater than 10000 nM and an IC50 (second compound 0.316 µM) greater than 10000 nM. For the same compound, the IC50 (second compound 1 µM) was greater than 10000 nM, the IC50 (second compound 3.16 µM) was greater than 10000 nM and the IC50 (second compound 10 µM) was greater than 10000 nM. For the same compound, the viability, T/C [1] was 92.8%, the viability, T/C [2] was 94.6% and the viability, T/C [3] was 104%. The viability, T/C [4] was 109%, the viability, T/C [25] was 130% and the viability, T/C [26] was 104%. For the same compound, the viability, T/C [5] was 97.8%, the viability, T/C [6] was 98.6% and the viability, T/C [7] was 101%. The viability, T/C [8] was 108%, the viability, T/C [27] was 112% and the viability, T/C [28] was 113%. The viability, T/C [9] was 108%, the viability, T/C [10] was 98.6% and the viability, T/C [11] was 104%. For the same compound, the viability, T/C [12] was 99.6%, the viability, T/C [29] was 121% and the viability, T/C [30] was 99.5%. For the same compound, the viability, T/C [13] was 117%, the viability, T/C [14] was 117% and the viability, T/C [15] was 95.2%. For the same compound, the viability, T/C [16] was 106%, the viability, T/C [31] was 116% and the viability, T/C [32] was 102%. It also gave a viability, T/C [17] of 112%, a viability, T/C [18] of 111% and a viability, T/C [19] of 109%. It also gave a viability, T/C [20] of 105%, a viability, T/C [33] of 99.6% and a viability, T/C [34] of 93.2%. It also gave a viability, T/C [21] of 99.9%, a viability, T/C [22] of 102% and a viability, T/C [23] of 101%. It also gave a viability, T/C [24] of 102%, a viability, T/C [35] of 107% and a viability, T/C [36] of 94.5%.
In the case of `CC1COCCN1c1cc(-c2ccnn2C)c2ccnc(-c3ccn[nH]3)c2n1` (stereo unspecified) + COC1C(OC(N)=O)C(O)C(Oc2ccc3c(O)c(NC(=O)c4ccc(O)c(CC=C(C)C)c4)c(=O)oc3c2C)OC1(C)C, the IC50 (second compound 0.0316 µM) is reported as 862 nM, the IC50 (second compound 0.1 µM) is reported as 608 nM and the IC50 (second compound 0.316 µM) is reported as 619 nM. It also gave an IC50 (second compound 1 µM) of 610 nM, an IC50 (second compound 3.16 µM) of 804 nM and an IC50 (second compound 10 µM) of 635 nM. For the same compound, the viability, T/C [1] was 102%, the viability, T/C [2] was 90.4% and the viability, T/C [3] was 70.4%. The viability, T/C [4] was 48.4%, the viability, T/C [25] was 31.5% and the viability, T/C [26] was 33%. For the same compound, the viability, T/C [5] was 96.4%, the viability, T/C [6] was 91.1% and the viability, T/C [7] was 60.8%. The viability, T/C [8] was 44%, the viability, T/C [27] was 30.5% and the viability, T/C [28] was 38.7%. It also gave a viability, T/C [9] of 99.6%, a viability, T/C [10] of 86.1% and a viability, T/C [11] of 59.3%. For the same compound, the viability, T/C [12] was 46.1%, the viability, T/C [29] was 29.7% and the viability, T/C [30] was 40.2%. The viability, T/C [13] was 103%, the viability, T/C [14] was 84.8% and the viability, T/C [15] was 58.9%. It also gave a viability, T/C [16] of 46.1%, a viability, T/C [31] of 29% and a viability, T/C [32] of 36.1%. The viability, T/C [17] was 96.1%, the viability, T/C [18] was 86.4% and the viability, T/C [19] was 68.6%. The viability, T/C [20] was 47.6%, the viability, T/C [33] was 28.7% and the viability, T/C [34] was 30.9%. For the same compound, the viability, T/C [21] was 96.8%, the viability, T/C [22] was 86.9% and the viability, T/C [23] was 57.3%. For the same compound, the viability, T/C [24] was 47.7%, the viability, T/C [35] was 29.1% and the viability, T/C [36] was 31%.
